PubChem BioAssay (NCI)
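Cells were grown in 96-well plates and exposed to each compound for 48 hours at five concentrations; endpoints were interpolated linearly between bracketing concentrations, or set to the highest concentration if not reached. Here, GI50 denotes the concentration required for 50% inhibition of growth. TGI: total growth inhibition.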

Key:
Assay in all cases: inhibition of tumour cell growth, NCI panel, 48 h
HOP-62 NSCLC = system: HOP-62 NSCLC
OVCAR-5 ovarian = system: OVCAR-5 ovarian
EKVX NSCLC = system: EKVX NSCLC
SK-MEL-2 melanoma = system: SK-MEL-2 melanoma
RXF 393 renal = system: RXF 393 renal
NCI-H460 lung = system: NCI-H460 lung
SN12C renal = system: SN12C renal
A549 NSCLC = system: A549 NSCLC
LOX IMVI melanoma = system: LOX IMVI melanoma
K-562 leukemia = system: K-562 leukemia
UO-31 renal = system: UO-31 renal

Row | SMILES | TGI (HOP-62 NSCLC) | TGI (OVCAR-5 ovarian) | TGI (EKVX NSCLC) | TGI (SK-MEL-2 melanoma) | TGI (RXF 393 renal) | TGI (NCI-H460 lung) | TGI (SN12C renal) | TGI (A549 NSCLC) | TGI (LOX IMVI melanoma) | TGI (K-562 leukemia) | TGI (UO-31 renal) | GI50 (HOP-62 NSCLC) | GI50 (EKVX NSCLC) | GI50 (SK-MEL-2 melanoma) | GI50 (NCI-H460 lung) | GI50 (A549 NSCLC) | GI50 (LOX IMVI melanoma) | GI50 (K-562 leukemia) | GI50 (UO-31 renal)
1 | Cc1ccc(S(=O)(=O)OC2C(C3COC(C)(C)O3)OC3OC(C)(C)OC32)cc1 (stereo not drawn) | > 100 µM | > 100 µM | > 100 µM | > 100 µM | > 100 µM | > 100 µM | > 100 µM | > 100 µM | > 100 µM | > 100 µM | > 100 µM |  |  |  |  |  |  |  | 
2 | Clc1c(Cl)c2c(Cl)c(Cl)c1C[P+](c1ccccc1)(c1ccccc1)CC[P+](c1ccccc1)(c1ccccc1)Cc1c(Cl)c(Cl)c(c(Cl)c1Cl)C[P+](c1ccccc1)(c1ccccc1)CC[P+](c1ccccc1)(c1ccccc1)C2 | 18.5 µM | 13.2 µM | 21.7 µM | 6.09 µM | 10.9 µM | 12.4 µM | 15.3 µM | 18.8 µM | 7.89 µM | 9.17 µM | 21.2 µM |  |  |  |  |  |  |  | 
3 | Cc1ccc(-c2csc(=Nc3c(C)n(C)n(-c4ccccc4)c3=O)n2CCO)cc1 | > 100 µM | > 100 µM | > 100 µM | > 100 µM | > 100 µM | > 100 µM | > 100 µM | > 100 µM |  | > 100 µM | > 100 µM |  |  |  |  |  |  |  | 
4 | Cn1c(-c2ccc(/C=N\N3CCN(/N=C/c4ccc(-c5c[n+]6ccsc6n5C)cc4)CC3)cc2)c[n+]2ccsc12 |  | > 100 µM | > 100 µM | > 100 µM | > 100 µM | > 100 µM | > 100 µM | > 100 µM | > 100 µM | 34.7 µM | > 100 µM |  |  |  |  |  |  |  | 
5 | O=[n+]1c2ccccc2n([O-])c2cc(Br)ccc21 | > 100 µM | > 100 µM | 49.9 µM | 56.8 µM | 41.1 µM | > 100 µM | 42.3 µM | 39.4 µM | 13.6 µM | 33.4 µM | 28.1 µM |  |  |  |  |  |  |  | 
6 | CC(C)[C@](O)(C(=O)OCC1CC[N+]2([O-])CC[C@@H](O)C12)[C@H](C)O (stereo partly drawn) | > 375 µM | > 375 µM | > 375 µM | > 317 µM | > 375 µM | > 159 µM | > 375 µM | > 375 µM | > 203 µM | > 375 µM | > 375 µM |  |  |  |  |  |  |  | 
7 | CC#C[I+]c1ccccc1 | 96.6 µM | 77.8 µM | 36.7 µM | > 100 µM | 36.9 µM | > 100 µM | 25.6 µM | > 100 µM | 28.2 µM | 33.3 µM | 97.5 µM |  |  |  |  |  |  |  | 
8 | COc1cc2c3c(n(CCCNCCCNCCCn4c5c(c6ccccc6c4=O)C(=O)c4ccccc4-5)c(=O)c2cc1OC)-c1cc2c(cc1C3=O)OCO2 | 0.695 µM |  | 0.578 µM | 3.1 µM |  | 0.0113 µM |  | 2.3 µM | < 0.0361 µM | > 100 µM | 1.69 µM | < 0.0434 µM | < 0.01 µM | 0.64 µM | < 0.01 µM | 0.0201 µM | < 0.01 µM | 0.0403 µM | 0.0272 µM
9 | CCCCN1C(=O)NC(Cc2ccccc2)C1=O (stereo not drawn) | > 100 µM | > 100 µM | > 100 µM | > 100 µM | > 100 µM | > 100 µM | > 100 µM | > 100 µM | > 100 µM |  | > 100 µM |  |  |  |  |  |  |  | 
10 | CC(C)(C)C(=O)C(C(c1ccccc1)N1CCOCC1)N1CCOCC1 (stereo not drawn) | > 100 µM | > 100 µM | > 100 µM | > 100 µM | > 100 µM | > 100 µM | > 100 µM | > 100 µM | > 100 µM | > 100 µM | > 100 µM |  |  |  |  |  |  |  | 
11 | CCO[C@]12C[C@H](OC)[C@@]3(O)CC(C1[C@H]3O)C13C4C2[C@H](OC)C1[C@](COC)(CN4CC)[C@H](O)C[C@@H]3OC (stereo partly drawn) | > 100 µM | > 100 µM | > 100 µM |  | > 100 µM | > 100 µM | > 100 µM | > 100 µM | > 100 µM | > 100 µM | > 100 µM |  |  |  |  |  |  |  | 
12 | COc1ccc(N2C(=O)C3c4[nH]c5cccc(C)c5c4C4CCC(C(C)(C)C)CC4C3C2=O)cc1 (stereo not drawn) | > 10 µM | > 10 µM | > 10 µM | > 10 µM | > 10 µM | > 10 µM | > 10 µM | > 10 µM | > 10 µM | > 10 µM | > 10 µM |  |  |  |  |  |  |  | 
13 | CCCCCCCCCCCCCCCCOCC(COP(=O)([O-])OCC[N+](C)(C)C)OCCCCCCCCCCCCCCCC (stereo not drawn) | > 100 µM | > 100 µM | > 100 µM | > 100 µM | > 100 µM | > 100 µM | > 100 µM |  | > 100 µM | > 100 µM | > 100 µM |  |  |  |  |  |  |  | 
